{"source": "paper PMC6562672", "about": "“Dose-Dependent Sorafenib-Induced Immunosuppression Is Associated with Aberrant NFAT Activation and Expression of PD-1 in T Cells” (Cancers, 2019)", "key": {"[1]": {"conditions": "cited from earlier work"}, "woodchuck T cells": {"tested_on": "woodchuck T cells", "experiment": "One-way mixed lymphocyte reaction (MLR), woodchuck T cells, CFSE", "type": "cell-based", "conditions": "woodchuck vs. human MLR, 0–10 µM, dose responsive, 96 h", "description": "Flow cytometry acquisition and compensation was performed on a LSR Fortessa (BD Biosciences, San Jose, CA, USA). Analysis of listmode data was performed using Winlist 8.0 (Verity Software House, Inc., Topsham, ME, USA). Briefly, the viable responder lymphocytes were hierarchically gated for single, low side scatter, viable cells with absent CD45 labeling. The percentage of proliferating cells was determined based on CFSE dye dilution compared to the CFSE labeling intensity from the non-proliferating MLR negative control sample. The full list of antibodies and reagents used in assays is available in Table S1.\nMixed lymphocyte reactions were performed in human (human vs. human, Figure 1E) and woodchucks (woodchuck vs. human, Figure 1F). 10 mL peripheral blood from healthy donors and 3 mL woodchuck peripheral blood isolated. Stimulator cells (human cells for both assays) were irradiated at 40 Gy in a Mark I Cesium-137 irradiator for 20 min. Following irradiation, cells were stained for CD45-APC (BD Biosciences, San Jose, CA, USA). Responder cells (non-irradiated human or woodchuck cells) were labeled with CFSE (Thermo Fisher Scientific, Eugene, OR, USA). Target and responder cells were placed in a round bottom 96 well polypropylene plate at a 2:1 ratio in the presence of 0–10 µM sorafenib and incubated at 37 °C for 96 h. […]"}}, "note": "Read-outs that look alike come from different tables or passages of the source.", "data": [{"smiles": "CNC(=O)c1cc(Oc2ccc(NC(=O)Nc3ccc(Cl)c(C(F)(F)F)c3)cc2)ccn1", "note": "[sorafenib, Sorafenib]", "values": [{"measurement": "plasma concentration of sorafenib in clinical trials", "setting": "[1]; clinical trials", "result": "approximately 2 mg/L"}, {"measurement": "plasma concentration of sorafenib in clinical trials", "setting": "[1]; conversion of 2 mg/L", "result": 4, "unit": "µM"}, {"measurement": "time to steady-state concentrations", "setting": "[1]; patients, multiple oral dosing", "result": 7, "unit": "days"}, {"measurement": "MLR response (T cell proliferation)", "setting": "woodchuck T cells", "result": "inhibition of the woodchuck MLR response"}]}]}
